Our source for the Activity, IC50 and inhibition values is ChEMBL document CHEMBL1143057, “Small molecule designed to target metal binding site in the alpha2I domain inhibits integrin function” (J Med Chem, 2007).

The term IC50 denotes the concentration needed to halve the response being measured. High values mean weaker potency, low ones greater potency. By inhibition is commonly meant the change of the read-out against control, counted positive when it falls.

The target of data set [1] is Integrin alpha-1 (Homo sapiens) (UniProt P56199). Briefly: Inhibition of integrin alpha-1 binding to collagen 4 at 50 uM.
In data set [2] the target is Integrin alpha-2 (Homo sapiens) (UniProt P17301). Briefly: Inhibition of integrin alpha-2 binding to collagen 4 at 50 uM.
Data set [3] addresses Integrin alpha-1 (Homo sapiens) (UniProt P56199). The experiment in a line: Inhibition of integrin alpha-1 binding to collagen 1 at 50 uM.
In a further data set the target is T1, Integrin alpha-2 (Homo sapiens, UniProt P17301).
T1 sequence (P17301 whole entry): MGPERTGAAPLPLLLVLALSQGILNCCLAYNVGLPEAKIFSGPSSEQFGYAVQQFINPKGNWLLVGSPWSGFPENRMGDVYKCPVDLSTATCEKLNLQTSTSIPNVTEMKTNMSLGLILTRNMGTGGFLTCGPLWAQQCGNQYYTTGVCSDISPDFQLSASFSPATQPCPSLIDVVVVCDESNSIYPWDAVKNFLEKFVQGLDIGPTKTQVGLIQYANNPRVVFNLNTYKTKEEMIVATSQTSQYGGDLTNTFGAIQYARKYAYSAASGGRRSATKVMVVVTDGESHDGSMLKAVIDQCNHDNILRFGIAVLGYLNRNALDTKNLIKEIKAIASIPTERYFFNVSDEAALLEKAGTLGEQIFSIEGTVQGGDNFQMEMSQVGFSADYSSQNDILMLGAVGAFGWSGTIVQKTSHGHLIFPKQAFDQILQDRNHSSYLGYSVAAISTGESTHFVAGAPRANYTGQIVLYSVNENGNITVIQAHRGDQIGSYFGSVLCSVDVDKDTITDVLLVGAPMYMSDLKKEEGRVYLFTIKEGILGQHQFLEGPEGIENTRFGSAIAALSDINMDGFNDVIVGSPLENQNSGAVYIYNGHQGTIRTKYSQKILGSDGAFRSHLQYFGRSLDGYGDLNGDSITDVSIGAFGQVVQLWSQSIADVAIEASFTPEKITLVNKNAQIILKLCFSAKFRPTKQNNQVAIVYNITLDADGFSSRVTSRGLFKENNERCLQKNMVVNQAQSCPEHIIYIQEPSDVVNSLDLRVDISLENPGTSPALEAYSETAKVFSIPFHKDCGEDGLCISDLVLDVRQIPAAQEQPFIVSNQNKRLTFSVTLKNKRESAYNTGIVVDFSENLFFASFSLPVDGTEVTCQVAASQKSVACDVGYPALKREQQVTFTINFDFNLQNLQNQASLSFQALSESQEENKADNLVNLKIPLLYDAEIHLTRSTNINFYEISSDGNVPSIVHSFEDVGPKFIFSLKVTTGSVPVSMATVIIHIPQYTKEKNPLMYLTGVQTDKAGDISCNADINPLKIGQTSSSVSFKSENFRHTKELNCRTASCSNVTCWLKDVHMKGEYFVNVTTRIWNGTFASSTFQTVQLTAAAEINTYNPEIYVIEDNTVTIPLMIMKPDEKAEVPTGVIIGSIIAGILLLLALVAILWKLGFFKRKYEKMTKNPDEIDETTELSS
Briefly: Inhibition of integrin alpha-2 domain binding to collagen 1 by Europium-labeled anti-GST assay.

Data set [4] deals with Integrin alpha-2 (Homo sapiens) (UniProt P17301). Briefly: Inhibition of integrin alpha-2 domain binding to collagen 1 by Europium-labeled anti-GST assay relative to control. Conditions: concentration not given here.
Data set [5] has as its system CHO. Briefly: Inhibition of integrin alpha-2 expressing CHO cell adhesion to collagen 1 at 10 uM. Conditions: Cricetulus griseus. It counts as functional.
For data set [6], the system named is CHO. Briefly: Cytotoxicity against CHO cells at =< 200 uM. It counts as cell-based, Cricetulus griseus. Conditions: chinese hamster.
Data set [7] has as its target T2, Integrin alpha-10 (Homo sapiens) (UniProt O75578).
T2 sequence (whole entry): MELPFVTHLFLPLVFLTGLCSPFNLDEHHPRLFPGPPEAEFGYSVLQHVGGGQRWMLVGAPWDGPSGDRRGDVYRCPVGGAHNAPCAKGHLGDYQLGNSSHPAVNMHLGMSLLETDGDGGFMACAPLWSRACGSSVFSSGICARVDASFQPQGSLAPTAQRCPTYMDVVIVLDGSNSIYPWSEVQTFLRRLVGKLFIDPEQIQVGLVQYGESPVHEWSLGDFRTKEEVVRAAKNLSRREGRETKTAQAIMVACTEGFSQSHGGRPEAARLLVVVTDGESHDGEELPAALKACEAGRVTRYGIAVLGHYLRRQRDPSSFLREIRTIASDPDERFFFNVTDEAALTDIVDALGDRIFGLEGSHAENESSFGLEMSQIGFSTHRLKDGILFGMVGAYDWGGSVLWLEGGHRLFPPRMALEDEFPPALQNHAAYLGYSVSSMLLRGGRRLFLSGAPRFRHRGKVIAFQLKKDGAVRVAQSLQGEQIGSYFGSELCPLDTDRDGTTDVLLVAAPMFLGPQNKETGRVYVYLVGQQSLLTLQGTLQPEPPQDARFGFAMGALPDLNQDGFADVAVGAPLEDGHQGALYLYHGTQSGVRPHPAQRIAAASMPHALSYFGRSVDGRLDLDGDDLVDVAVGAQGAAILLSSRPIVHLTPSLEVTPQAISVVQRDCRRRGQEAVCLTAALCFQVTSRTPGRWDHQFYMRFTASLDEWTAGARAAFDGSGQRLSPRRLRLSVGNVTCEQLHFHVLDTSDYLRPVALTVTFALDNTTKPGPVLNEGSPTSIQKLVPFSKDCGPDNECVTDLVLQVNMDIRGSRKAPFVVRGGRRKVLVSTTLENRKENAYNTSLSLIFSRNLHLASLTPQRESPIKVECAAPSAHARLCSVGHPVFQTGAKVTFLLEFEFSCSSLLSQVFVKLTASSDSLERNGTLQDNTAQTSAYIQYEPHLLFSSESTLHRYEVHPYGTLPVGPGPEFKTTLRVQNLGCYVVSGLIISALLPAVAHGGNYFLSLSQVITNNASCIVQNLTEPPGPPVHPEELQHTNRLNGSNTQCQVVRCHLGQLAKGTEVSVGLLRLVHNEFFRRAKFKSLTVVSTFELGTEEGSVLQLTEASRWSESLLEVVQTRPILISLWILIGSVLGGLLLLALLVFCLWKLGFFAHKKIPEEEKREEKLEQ
Briefly: Inhibition of integrin alpha-10 binding to collagen 1 at 50 uM.

Data set [8] relates to CHO. Briefly: Cytotoxicity against CHO cells at =< 50 uM. It counts as cell-based, Cricetulus griseus. Conditions: chinese hamster.
In data set [9] the target is T3, Integrin alpha-11 (Homo sapiens) (UniProt Q9UKX5).
T3 sequence (whole entry): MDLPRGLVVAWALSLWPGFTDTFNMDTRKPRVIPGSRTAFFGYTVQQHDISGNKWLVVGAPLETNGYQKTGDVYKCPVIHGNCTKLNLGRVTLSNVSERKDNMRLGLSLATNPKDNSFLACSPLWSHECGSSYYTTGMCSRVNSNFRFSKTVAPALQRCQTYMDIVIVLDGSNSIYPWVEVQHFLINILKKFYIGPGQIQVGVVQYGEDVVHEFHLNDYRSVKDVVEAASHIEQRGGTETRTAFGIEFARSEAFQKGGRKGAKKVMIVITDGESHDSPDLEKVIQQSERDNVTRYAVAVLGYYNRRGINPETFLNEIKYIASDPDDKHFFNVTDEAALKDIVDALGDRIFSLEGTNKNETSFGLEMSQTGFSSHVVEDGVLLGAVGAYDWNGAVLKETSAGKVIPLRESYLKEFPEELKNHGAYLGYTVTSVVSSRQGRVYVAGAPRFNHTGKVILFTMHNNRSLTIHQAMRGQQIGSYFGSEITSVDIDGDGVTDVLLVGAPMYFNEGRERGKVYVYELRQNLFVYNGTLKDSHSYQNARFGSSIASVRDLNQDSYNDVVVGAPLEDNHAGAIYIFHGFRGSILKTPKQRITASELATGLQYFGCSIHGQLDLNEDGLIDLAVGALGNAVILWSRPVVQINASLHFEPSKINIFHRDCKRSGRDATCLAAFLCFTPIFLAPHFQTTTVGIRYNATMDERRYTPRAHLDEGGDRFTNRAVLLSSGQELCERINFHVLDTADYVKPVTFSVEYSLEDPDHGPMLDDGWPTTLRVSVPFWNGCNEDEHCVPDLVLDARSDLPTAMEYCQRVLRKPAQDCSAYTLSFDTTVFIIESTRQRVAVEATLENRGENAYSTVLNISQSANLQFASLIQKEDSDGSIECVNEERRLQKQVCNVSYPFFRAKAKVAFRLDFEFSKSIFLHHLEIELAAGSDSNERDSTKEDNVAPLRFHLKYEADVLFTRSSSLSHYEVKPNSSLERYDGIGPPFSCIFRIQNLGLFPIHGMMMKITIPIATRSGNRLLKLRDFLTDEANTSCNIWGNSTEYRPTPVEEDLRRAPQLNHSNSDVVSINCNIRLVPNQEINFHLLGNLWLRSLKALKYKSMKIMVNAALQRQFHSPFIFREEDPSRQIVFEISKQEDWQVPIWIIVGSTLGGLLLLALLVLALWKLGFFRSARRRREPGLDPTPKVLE
Briefly: Inhibition of integrin alpha-11 binding to collagen 1 at 50 uM.

In data set [10] the test system is CHO. Briefly: Inhibition of integrin alpha2 Y285F beta-1 mutant binding to collagen 1 in CHO cells. It counts as cell-based. Conditions: Homo sapiens.
The nature of data set [11]: Inhibition of integrin alpha-2 E318W mutant binding to collagen 4 by Europium-labeled anti-GST assay. On the set-up: species or system Homo sapiens.
Data set [12] is described as follows: Inhibition of integrin alpha-2 E318W mutant binding to collagen 1 by Europium-labeled anti-GST assay. Further details: species or system Homo sapiens.

Calls of active or inactive are those of the source. The rule behind the calls is not given here.

Chain of Integrin alpha-1 (Homo sapiens) (P56199 whole entry): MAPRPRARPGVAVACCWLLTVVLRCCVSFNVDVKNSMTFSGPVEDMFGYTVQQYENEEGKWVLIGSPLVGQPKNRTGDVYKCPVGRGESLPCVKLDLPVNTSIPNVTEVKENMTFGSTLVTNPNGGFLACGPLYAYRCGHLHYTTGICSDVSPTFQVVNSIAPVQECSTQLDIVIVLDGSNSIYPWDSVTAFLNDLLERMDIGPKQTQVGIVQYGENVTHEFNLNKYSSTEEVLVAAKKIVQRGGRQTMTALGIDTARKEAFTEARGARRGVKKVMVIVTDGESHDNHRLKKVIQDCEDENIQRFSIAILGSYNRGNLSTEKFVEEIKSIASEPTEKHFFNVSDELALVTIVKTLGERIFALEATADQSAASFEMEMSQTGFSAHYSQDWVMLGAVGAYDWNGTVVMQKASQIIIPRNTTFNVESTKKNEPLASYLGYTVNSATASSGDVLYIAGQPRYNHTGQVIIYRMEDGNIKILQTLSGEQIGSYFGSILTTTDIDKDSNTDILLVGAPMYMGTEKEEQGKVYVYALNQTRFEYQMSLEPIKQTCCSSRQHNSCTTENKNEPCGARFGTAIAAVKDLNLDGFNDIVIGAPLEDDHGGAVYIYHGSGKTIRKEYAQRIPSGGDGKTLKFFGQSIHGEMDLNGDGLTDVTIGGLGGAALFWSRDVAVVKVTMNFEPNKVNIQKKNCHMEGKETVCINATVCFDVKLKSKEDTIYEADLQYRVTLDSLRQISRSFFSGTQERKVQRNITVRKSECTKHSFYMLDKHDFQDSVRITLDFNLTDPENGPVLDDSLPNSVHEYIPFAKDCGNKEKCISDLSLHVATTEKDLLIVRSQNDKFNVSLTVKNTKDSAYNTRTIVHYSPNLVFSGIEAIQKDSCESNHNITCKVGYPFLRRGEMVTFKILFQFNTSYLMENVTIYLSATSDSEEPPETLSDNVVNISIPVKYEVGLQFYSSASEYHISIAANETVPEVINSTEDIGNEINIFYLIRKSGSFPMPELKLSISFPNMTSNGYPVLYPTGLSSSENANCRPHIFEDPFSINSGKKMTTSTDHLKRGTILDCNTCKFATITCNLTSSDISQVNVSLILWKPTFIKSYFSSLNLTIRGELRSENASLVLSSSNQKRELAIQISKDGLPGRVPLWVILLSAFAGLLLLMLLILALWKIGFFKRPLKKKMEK

In the case of `CCc1cc(O)c2c(O)c3c(cc2c1C(=O)OC)C(=O)c1cccc(O)c1C3=O`, the outcome in data set [1], in data set [2] and in data set [3] was Active. Also, the IC50 at Integrin alpha-2 amounted to 50 µM.
For `CCC1(O)CC(=O)c2c(O)c3c(c(O)c2C1C(=O)OC)C(=O)c1cccc(O)c1C3=O` (stereo unspecified) [MAGGIEMYCIN], in [4], the inhibition turned out to be 65%. For the same compound, the inhibition at 10 µM in the data set on CHO [5] stood at 10%. In addition, in the data set with CHO [6], the Activity entry is “Non-toxic”.
Turning to `COC(=O)c1c(C(C)C)cc(O)c2c(O)c3c(c(O)c12)C(=O)c1cccc(O)c1C3=O`, the outcome in [7] and in data set [9] was Active. In addition, in the data set with CHO [8], the Activity result is listed as “Non-toxic”. Further, the inhibition in data set [4] turned out to be 90%. For the same compound, the inhibition at 10 µM in the data set on CHO [5] is 40%.
In the case of `CCc1cc(O)c2c(O)c3c(c(O)c2c1C(=O)OC)C(=O)c1cccc(O)c1C3=O` [ANHYDROMAGGIEMYCIN], in the data set with CHO [8], the Activity entry is listed as “Non-toxic”. Besides, the inhibition in [4] is 100%; in the data set with CHO [10], -3.3%. Moreover, the inhibition at 10 µM in the data set with CHO [5] was 35%. Further, the 50% inhibitory concentration (IC50) in [11] came out at 131 µM; in data set [12] it was 160 µM.
As to `CCc1cc(NCCO)c2c(O)c3c(c(O)c2c1C(=O)OC)C(=O)c1cccc(O)c1C3=O`, the inhibition in data set [4] was 0%. In addition, in the data set with CHO [5], the inhibition at 10 µM was found to be 30%. The Activity result in the data set with CHO [6] was “Non-toxic”.
